Read-outs that look alike come from different tables or passages of the source.
Columns and labels:
IRAK1 = target: T1, IRAK1 (Homo sapiens, UniProt P51617); assay: RBC HotSpot Kinase Assay, IRAK1; type: biochemical; conditions: isolated kinase enzyme, 33P-ATP, P81 filter-binding
T1 construct: purchased Reaction Biology (RBC HotSpot)
Text: (§1) This assay uses the isolated kinase enzyme. […] Unlike kinase binding assays that measure competition for ATP, the HotSpot Kinase Assay is a functional assay that measures catalytic activity; as such it measures relative functional potency regardless of the mechanism of enzyme inhibition. This assay uses the form of the various enzymes that are easiest to express, which may not necessarily be the form of the enzyme that exist in the cell. (Sometimes the carboxy terminus has been truncated to aid in expression, or, if it is a receptor kinase, the enzyme itself is isolated from the other parts of the receptor that are involved in regulating kinase activity.)
(§2) The reagent used was as follows: Base Reaction buffer; 20 mM Hepes (pH 7.5), 10 mM MgCl2, 1 mM EGTA, 0.01% Brij35, 0.02 mg/ml BSA, 0.1 mM Na3VO4, 2 mM DTT, 1% DMSO. Required cofactors were added individually to each kinase reaction.

FLT3 = target: T2, FLT3 (Homo sapiens, UniProt P36888); assay: RBC HotSpot Kinase Assay, FLT3; type: biochemical; design: purchased Reaction Biology (RBC HotSpot); conditions: isolated kinase enzyme, 33P-ATP, P81 filter-binding
T2 sequence (P36888 27-993): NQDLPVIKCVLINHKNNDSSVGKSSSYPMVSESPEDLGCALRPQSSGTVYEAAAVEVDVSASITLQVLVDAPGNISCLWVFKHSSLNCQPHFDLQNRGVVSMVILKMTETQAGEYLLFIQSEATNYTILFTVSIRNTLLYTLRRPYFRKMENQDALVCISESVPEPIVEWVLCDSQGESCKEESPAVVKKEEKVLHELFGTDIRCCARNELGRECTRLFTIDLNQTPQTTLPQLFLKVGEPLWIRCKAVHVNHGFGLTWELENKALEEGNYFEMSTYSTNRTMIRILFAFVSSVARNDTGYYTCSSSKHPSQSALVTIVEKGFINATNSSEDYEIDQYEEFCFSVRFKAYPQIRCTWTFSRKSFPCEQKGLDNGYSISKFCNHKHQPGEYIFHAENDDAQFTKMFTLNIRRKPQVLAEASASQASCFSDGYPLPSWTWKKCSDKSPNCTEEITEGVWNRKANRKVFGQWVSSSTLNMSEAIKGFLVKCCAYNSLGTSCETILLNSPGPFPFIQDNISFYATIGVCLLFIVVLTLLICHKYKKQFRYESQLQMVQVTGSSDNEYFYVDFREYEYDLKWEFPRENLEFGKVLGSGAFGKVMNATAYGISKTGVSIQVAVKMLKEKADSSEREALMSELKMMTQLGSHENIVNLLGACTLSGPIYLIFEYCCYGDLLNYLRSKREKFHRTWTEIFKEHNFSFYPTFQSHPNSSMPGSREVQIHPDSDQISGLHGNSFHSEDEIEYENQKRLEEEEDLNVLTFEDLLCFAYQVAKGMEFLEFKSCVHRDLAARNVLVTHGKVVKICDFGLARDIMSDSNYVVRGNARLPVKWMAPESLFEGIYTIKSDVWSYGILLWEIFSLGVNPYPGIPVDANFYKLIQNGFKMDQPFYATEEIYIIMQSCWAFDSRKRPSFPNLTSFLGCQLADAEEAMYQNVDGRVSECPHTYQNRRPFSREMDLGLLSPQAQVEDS
Text: as §1, §2

IRAK4 = target: T3, IRAK4 (Homo sapiens, UniProt Q9NWZ3); assay: RBC HotSpot Kinase Assay, IRAK4; type: biochemical; design: purchased Reaction Biology (RBC HotSpot); conditions: isolated kinase enzyme, 33P-ATP, P81 filter-binding
T3 sequence (Q9NWZ3 1-460): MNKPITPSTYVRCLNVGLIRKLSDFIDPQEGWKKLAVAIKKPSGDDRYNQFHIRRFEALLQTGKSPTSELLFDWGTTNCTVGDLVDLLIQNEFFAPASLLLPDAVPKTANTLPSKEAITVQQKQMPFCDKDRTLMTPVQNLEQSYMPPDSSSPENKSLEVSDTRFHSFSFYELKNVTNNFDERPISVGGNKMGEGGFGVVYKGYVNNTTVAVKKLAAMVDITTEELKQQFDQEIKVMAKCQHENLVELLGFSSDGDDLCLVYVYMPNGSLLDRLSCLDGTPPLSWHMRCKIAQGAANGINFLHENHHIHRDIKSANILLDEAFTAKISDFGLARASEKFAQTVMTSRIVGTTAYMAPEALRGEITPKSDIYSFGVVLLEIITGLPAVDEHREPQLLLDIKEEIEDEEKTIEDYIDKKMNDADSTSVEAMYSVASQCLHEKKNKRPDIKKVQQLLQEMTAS
Text: as §1, with “enzyme. This assay is very useful for determining competition of the inhibitor for ATP and/or substrates and for measuring the kinetics of enzyme inhibition.” for “enzyme.”
as §2
The reaction procedure was as follows: • 1) Substrates were prepared in freshly prepared Reaction Buffer. • 2) Any required cofactors were delivered to the substrate solution above. • 3) Kinase was delivered into the substrate solution and gently mixed. • 4) Compounds were delivered in 1000A DM into the kinase reaction mixture by Acoustic technology (Echo550; nanoliter range), followed by incubation for 20 min at room temp. • 5) 33P-ATP was delivered into the reaction mixture to initiate the reaction. • 6) The mixture was incubated for 2 hours at room temperature. • 7) Kinase activity was detected by P81 filter-binding method.

MOLM14 D835Y cells = assay: MOLM14 D835Y cell viability assay (Cell Titer Glo); type: cell-based; conditions: cell viability, Cell Titer Glo, 48 hours, read-out: MOLM14 D835Y IC50
Procedure: Both cell lines have activated FLT3 receptors, each of which carry additional resistance mutations in the kinase domain (D835Y and F691L, respectively).
For viability/cytotoxicity assessments, cells were seeded into 1536-well white polystyrene tissue culture-treated Greiner plates using a Multidrop Combi dispenser (ThermoFisher), in final volume 5 μL of growth media per well, at a density of 1000 cells per well. […] Plates were incubated for 48 hours at standard incubator conditions covered by a stainless steel gasketed lid to prevent evaporation. 48 hours post compound addition, 3 μL of Cell Titer Glo (Promega) were added to each well and plates were incubated at room temperature for 15 minutes with the stainless-steel lid in place. Luminescence readings were taken using a Viewlux imager (PerkinElmer) with a 2 second exposure time per plate.

T1 sequence (P51617 whole entry): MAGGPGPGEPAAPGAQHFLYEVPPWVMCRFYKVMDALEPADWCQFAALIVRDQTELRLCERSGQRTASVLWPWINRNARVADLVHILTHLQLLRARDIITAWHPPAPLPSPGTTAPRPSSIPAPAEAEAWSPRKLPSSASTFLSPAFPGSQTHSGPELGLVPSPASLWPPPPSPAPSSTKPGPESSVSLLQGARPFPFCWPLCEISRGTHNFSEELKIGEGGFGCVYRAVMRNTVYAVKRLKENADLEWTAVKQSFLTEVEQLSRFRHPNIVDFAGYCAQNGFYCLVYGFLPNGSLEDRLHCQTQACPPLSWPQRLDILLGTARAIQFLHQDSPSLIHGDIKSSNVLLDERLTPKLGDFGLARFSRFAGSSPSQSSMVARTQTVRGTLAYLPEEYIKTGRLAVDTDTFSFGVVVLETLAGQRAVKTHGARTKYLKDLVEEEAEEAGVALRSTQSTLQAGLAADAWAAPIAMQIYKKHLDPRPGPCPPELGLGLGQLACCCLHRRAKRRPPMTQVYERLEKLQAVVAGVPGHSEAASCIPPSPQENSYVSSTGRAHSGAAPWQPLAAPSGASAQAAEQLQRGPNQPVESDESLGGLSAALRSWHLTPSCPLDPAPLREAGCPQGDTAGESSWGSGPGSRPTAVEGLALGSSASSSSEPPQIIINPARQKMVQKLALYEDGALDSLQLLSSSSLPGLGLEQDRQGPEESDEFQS

Row | SMILES | IC50 (IRAK1) | IC50 (FLT3) | IC50 (IRAK4) | IC50 (MOLM14 D835Y cells; Homo sapiens, MOLM-14, 48 h) | IC50 (MOLM14 D835Y cells)
1 | CC(O)(c1ccc2ncc(-c3ccnc(N[C@H]4CNC[C@@H]4F)n3)n2c1)C(F)(F)F (single isomer, unassigned) [Compound 24a] | 16 nM | < 0.5 nM | 0.9 nM | 41 nM | 
2 | CC(O)(c1ccc2ncc(-c3ccnc(N[C@H]4CNC[C@@H]4F)n3)n2c1)C(F)(F)F (single isomer, unassigned) [Compound 26a] | 5 nM | < 0.5 nM | < 0.5 nM |  | 23 nM
3 | CC(O)(c1ccc2ncc(-c3cncc(N[C@@H]4CCCNC4)n3)n2c1)C(F)(F)F (single isomer, unassigned) [Compound 29a] | 27 nM | 1 nM | 0.8 nM |  | 106 nM
4 | CC(O)(c1ccc2ncc(-c3cncc(N[C@H]4CNC[C@@H]4F)n3)n2c1)C(F)(F)F (single isomer, unassigned) [Compound 30a] | 108 nM | 2 nM | 5 nM | 576 nM | 
5 | CC(O)(c1ccc2ncc(-c3cncc(N[C@H]4CNC[C@@H]4F)n3)n2c1)C(F)(F)F (single isomer, unassigned) [Compound 32a] | 53 nM | 2 nM | 1 nM |  | 408 nM
6 | CC(O)(c1ccc2ncc(-c3cncc(N[C@H]4CNCC[C@@H]4F)n3)n2c1)C(F)(F)F (single isomer, unassigned) [Compound 33a] | 9 nM | 0.7 nM | 0.8 nM |  | 65 nM
7 | CC(O)(c1ccc2ncc(-c3nc(N[C@H]4CNC[C@@H]4F)ncc3F)n2c1)C(F)(F)F (single isomer, unassigned) [Compound 36a] | 4 nM | < 0.5 nM | 2 nM | 41 nM | 
8 | CC(O)(c1ccc2ncc(-c3nc(N[C@H]4CNC[C@@H]4F)ncc3F)n2c1)C(F)(F)F (single isomer, unassigned) [Compound 38a] | 1 nM | < 0.5 nM | 0.6 nM |  | 51 nM
9 | CC(O)(c1ccc2ncc(-c3nc(N[C@@H]4CCCNC4)ncc3F)n2c1)C(F)(F)F (single isomer, unassigned) [Compound 39a] | 2 nM | < 0.5 nM | 1 nM |  | 32 nM
10 | CC(O)(c1cn2c(-c3nc(N[C@@H]4CCCNC4)ncc3F)cnc2cn1)C(F)(F)F (single isomer, unassigned) [Compound 131a] | 15 nM | 2 nM | 28 nM |  | 
11 | CC(O)(c1cn2c(-c3nc(N[C@@H]4CCCNC4)ncc3F)cnc2cn1)C(F)(F)F (single isomer, unassigned) [Compound 132a] | 3 nM | < 0.5 nM | 2 nM |  | 
12 | CC(O)(c1cn2c(-c3nc(N[C@H]4CNCC[C@@H]4F)ncc3F)cnc2cn1)C(F)(F)F (single isomer, unassigned) [Compound 133a] | 15 nM | 1 nM | 15 nM |  | 
13 | CC(O)(c1cn2c(-c3nc(N[C@H]4CNCC[C@@H]4F)ncc3F)cnc2cn1)C(F)(F)F (single isomer, unassigned) [Compound 134a] | 2 nM | < 0.5 nM | 1 nM |  | 
14 | COc1cc2ncc(-c3nc(N[C@H]4CNC[C@@H]4F)ncc3F)n2nc1C1CC1 [Compound 2a, 4-(6-cyclopropyl-7-methoxyimidazo[1,2-b]pyridazin-3-yl)-5-fluoro-N-((3S,4S)-4-fluoropyrrolidin-3-yl)pyrimidin-2-amine] | 1 nM | < 0.5 nM | 0.7 nM | 4 nM | 
15 | FC(F)COc1cc2ncc(-c3ccnc(N[C@H]4CNC[C@@H]4F)n3)n2nc1C1CC1 [Compound 5a, 4-(6-cyclopropyl-7-(2,2-difluoroethoxy)imidazo[1,2-b]pyridazin-3-yl)-N-((3S,4S)-4-fluoropyrrolidin-3-yl)pyrimidin-2-amine] | 29 nM | < 0.5 nM | 0.9 nM | 29 nM | 
16 | FC(F)COc1cc2ncc(-c3ccnc(N[C@@H]4CCCNC4)n3)n2nc1C1CC1 [Compound 6a, (R)-4-(6-cyclopropyl-7-(2,2-difluoroethoxy)imidazo[1,2-b]pyridazin-3-yl)-N-(piperidin-3-yl)pyrimidin-2-amine] | 133 nM | < 0.5 nM | 3 nM | 9 nM | 
17 | COc1cc2ncc(-c3nc(N[C@H]4CNCC[C@@H]4F)ncc3F)n2nc1C1(C)COC1 [Compound 70a, 5-fluoro-N-((3S,4S)-4-fluoropiperidin-3-yl)-4-(7-methoxy-6-(3-methyloxetan-3-yl)imidazo[1,2-b]pyridazin-3-yl)pyrimidin-2-amine] | 3 nM | < 0.5 nM | < 0.5 nM |  | 
18 | [2H]C([2H])([2H])Oc1cc2ncc(-c3ccnc(N[C@H]4CNCC[C@@H]4F)n3)n2nc1C1CC1 [Compound 128a, 4-(6-cyclopropyl-7-(methoxy-d3)imidazo[1,2-b]pyridazin-3-yl)-N-((3S,4S)-4-fluoropiperidin-3-yl)pyrimidin-2-amine] | 24 nM | < 0.5 nM | 0.7 nM |  | 
19 | [2H]C([2H])([2H])Oc1cc2ncc(-c3ccnc(N[C@@H]4CCCNC4)n3)n2nc1C1CC1 [Compound 129a, (R)-4-(6-cyclopropyl-7-(methoxy-d3)imidazo[1,2-b]pyridazin-3-yl)-N-(piperidin-3-yl)pyrimidin-2-amine] | 86 nM | < 0.5 nM | 2 nM |  | 

— patent US20260226048A1, “MULTI-CYCLIC IRAK AND FLT3 INHIBITING COMPOUNDS AND USES THEREOF” (CHILDREN'S HOSPITAL MEDICAL CENTER, priority 2023, published 2026)
